The record followed here is patent publication US9650334B2 (AbbVie Deutschland GmbH & Co. KG, priority 2013, dated 2017).

pKi: −log10 of the molar value.

In this assay the target is T1, human GlyT1c transporter (Homo sapiens, UniProt P48067).
T1 sequence (P48067 1-706): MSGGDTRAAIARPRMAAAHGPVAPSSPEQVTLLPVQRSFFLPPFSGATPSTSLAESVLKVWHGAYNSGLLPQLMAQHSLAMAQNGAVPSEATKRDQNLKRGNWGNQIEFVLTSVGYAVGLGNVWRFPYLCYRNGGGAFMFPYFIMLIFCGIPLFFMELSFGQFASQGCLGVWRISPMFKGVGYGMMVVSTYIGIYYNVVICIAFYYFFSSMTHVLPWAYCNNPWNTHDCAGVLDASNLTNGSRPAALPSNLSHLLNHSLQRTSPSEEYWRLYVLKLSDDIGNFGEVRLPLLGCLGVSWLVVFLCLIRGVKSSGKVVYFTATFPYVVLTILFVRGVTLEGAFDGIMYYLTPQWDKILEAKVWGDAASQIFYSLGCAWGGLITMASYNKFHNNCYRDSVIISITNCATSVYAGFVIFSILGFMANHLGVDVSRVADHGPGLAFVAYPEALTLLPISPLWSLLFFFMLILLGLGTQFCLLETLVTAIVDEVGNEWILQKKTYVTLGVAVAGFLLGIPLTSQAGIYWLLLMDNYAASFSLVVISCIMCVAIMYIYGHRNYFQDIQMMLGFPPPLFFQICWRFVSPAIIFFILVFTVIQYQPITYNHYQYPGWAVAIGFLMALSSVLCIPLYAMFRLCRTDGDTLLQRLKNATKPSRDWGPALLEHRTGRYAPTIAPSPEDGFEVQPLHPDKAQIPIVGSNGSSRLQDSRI
As to the kind of experiment: Radioligand binding assays using recombinant CHO cell membranes expressing human GlyT1. Conditions: Ki, radioligand binding to human GlyT1c transporter-expressing CHO cell membranes.
For orientation: pKi means the Ki on a negative log10 scale, so that one unit is a factor of ten. Turning to `Cn1cnc(S(=O)(=O)N2CC3CCCCC3(NCc3ccc(C(F)(F)F)cc3)C2)c1` (stereo not shown) [Example 884, 2-[(1-methyl-1H-imidazol-4-yl)sulfonyl]-N-[4-(trifluoromethyl)benzyl]octahydro-3aH-isoindol-3a-amine], the negative-log Ki (pKi) is no less than 7.00.

In the case of `Cn1cnc(S(=O)(=O)N2CC(COc3ccc(F)cc3)C(c3ccccn3)C2)c1` (stereo not shown) [Example 886, 2-{4-[(4-fluorophenoxy)methyl]-1-[(1-methyl-1H-imidazol-4-yl)sulfonyl]pyrrolidin-3-yl}pyridine], the pKi was no less than 6.00.

Turning to `Cn1cnc(S(=O)(=O)N2CC(Nc3cccc(OC(F)(F)F)c3)c3ccccc32)c1` (stereo not shown) [Example 887, 1-[(1-methyl-1H-imidazol-4-yl)sulfonyl]-N-[3-(trifluoromethoxy)phenyl]-2,3-dihydro-1H-indol-3-amine], the negative logarithm of the Ki (pKi) was no less than 7.00.

With `Cn1cnc(S(=O)(=O)N2CC3c4ccccc4CCC3(Oc3cc(C(F)(F)F)ncn3)C2)c1` (stereo not shown) [Example 888, 2-[(1-methyl-1H-imidazol-4-yl)sulfonyl]-3a-{[6-(trifluoromethyl)pyrimidin-4-yl]oxy}-2,3,3a,4,5,9b-hexahydro-1H-benzo[e]isoindole], the pKi was no less than 6.00.

With `Cn1cnc(S(=O)(=O)N2CC3c4ccccc4CCC3(NCc3ccc(F)cc3)C2)c1` (stereo not shown) [Example 889, N-(4-fluorobenzyl)-2-[(1-methyl-1H-imidazol-4-yl)sulfonyl]-1,2,3,4,5,9b-hexahydro-3aH-benzo[e]isoindol-3a-amine], the pKi is no less than 7.00.

On to `Cn1cc(S(=O)(=O)N2CC3c4ccccc4CC3(Nc3cc(C(F)(F)F)ncn3)C2)nn1` (stereo not shown) [Example 891, 2-[(1-methyl-1H-1,2,3-triazol-4-yl)sulfonyl]-N-[6-(trifluoromethyl)pyrimidin-4-yl]-2,3,3a,8-tetrahydroindeno[1,2-c]pyrrol-8a(1H)-amine], for which the pKi is no less than 7.00.

Take `CN1CCCCC1C1CN(S(=O)(=O)c2cn(C)cn2)CC1NC1CCc2ccccc21` (stereo not shown) [Example 893, N-(2,3-dihydro-1H-inden-1-yl)-1-[(1-methyl-1H-imidazol-4-yl)sulfonyl]-4-(1-methylpiperidin-2-yl)pyrrolidin-3-amine]: the pKi is no less than 7.00.

As to `CN1CCCCC1C1CN(S(=O)(=O)c2cn(C)cn2)CC1Nc1cccc(OCC(F)(F)F)c1` (stereo not shown) [Example 894, 1-[(1-methyl-1H-imidazol-4-yl)sulfonyl]-4-(1-methylpiperidin-2-yl)-N-[3-(2,2,2-trifluoroethoxy)phenyl]pyrrolidin-3-amine], the pKi is no less than 8.00.

Regarding `Cn1cnc(S(=O)(=O)N2CC(Nc3cccc(OC(F)(F)F)c3)C(c3ccc(F)cn3)C2)c1` (stereo not shown) [Example 895, 4-(5-fluoropyridin-2-yl)-1-[(1-methyl-1H-imidazol-4-yl)sulfonyl]-N-[3-(trifluoromethoxy)phenyl]pyrrolidin-3-amine], the pKi was no less than 8.00.

Take `Cn1cc(S(=O)(=O)N2C[C@H](Nc3cccc(OC(F)(F)F)c3)[C@@H](C3OCCCO3)C2)nn1` [Example 896, (3R,4S)-4-(1,3-dioxan-2-yl)-1-[(1-methyl-1H-1,2,3-triazol-4-yl)sulfonyl]-N-[3-(trifluoromethoxy)phenyl]pyrrolidin-3-amine]: the pKi is no less than 8.00.

On to `CN1CCCCC1C1CN(S(=O)(=O)c2cn(C)cn2)CC1Nc1cccc(OC(F)(F)F)c1` (stereo not shown) [Example 898, 1-[(1-methyl-1H-imidazol-4-yl)sulfonyl]-4-(1-methylpiperidin-2-yl)-N-[3-(trifluoromethoxy)phenyl]pyrrolidin-3-amine], for which the pKi is no less than 8.00.

For `Cn1cnc(S(=O)(=O)N2C[C@H](Nc3cccc(OCC(F)(F)F)c3)[C@@H](C3OCCCO3)C2)c1` [Example 899, (3R,4S)-4-(1,3-dioxan-2-yl)-1-[(1-methyl-1H-imidazol-4-yl)sulfonyl]-N-[3-(2,2,2-trifluoroethoxy)phenyl]pyrrolidin-3-amine], the pKi is no less than 7.00.

`Cn1cnc(S(=O)(=O)N2C[C@H](Nc3cccc(OC(F)(F)F)c3)[C@@H](C3OCC(C)(C)CO3)C2)c1` [Example 900, (3R,4S)-4-(5,5-dimethyl-1,3-dioxan-2-yl)-1-[(1-methyl-1H-imidazol-4-yl)sulfonyl]-N-[3-(trifluoromethoxy)phenyl]pyrrolidin-3-amine]: the pKi was no less than 6.00.

In the case of `Cn1cnc(S(=O)(=O)N2C[C@H](Nc3cccc(OC(F)(F)F)c3)[C@@H](C3OCCO3)C2)c1` [Example 902, (3R,4S)-4-(1,3-dioxolan-2-yl)-1-[(1-methyl-1H-imidazol-4-yl)sulfonyl]-N-[3-(trifluoromethoxy)phenyl]pyrrolidin-3-amine], the pKi is no less than 6.00.

As for `Cn1cnc(S(=O)(=O)N2C[C@H](NC3CCc4ccccc43)[C@@H](C3OCCCO3)C2)c1` (stereo partly drawn) [Example 903, (3R,4S)-N-(2,3-dihydro-1H-inden-1-yl)-4-(1,3-dioxan-2-yl)-1-[(1-methyl-1H-imidazol-4-yl)sulfonyl]pyrrolidin-3-amine], the pKi was no less than 8.00.

Turning to `Cn1cnc(S(=O)(=O)N2C[C@H](NCc3ccc(C(F)(F)F)cc3Cl)[C@@H](C3OCCCO3)C2)c1` [Example 904, (3R,4S)-N-[2-chloro-4-(trifluoromethyl)benzyl]-4-(1,3-dioxan-2-yl)-1-[(1-methyl-1H-imidazol-4-yl)sulfonyl]pyrrolidin-3-amine], the pKi is no less than 8.00.

Consider `Cn1cnc(S(=O)(=O)N2C[C@H](NCc3cccc(OC(F)(F)F)c3)[C@@H](C3OCCCO3)C2)c1` [Example 905, (3R,4S)-4-(1,3-dioxan-2-yl)-1-[(1-methyl-1H-imidazol-4-yl)sulfonyl]-N-[3-(trifluoromethoxy)benzyl]pyrrolidin-3-amine], for which the negative logarithm of the Ki (pKi) was no less than 6.00.

As for `Cn1cnc(S(=O)(=O)N2C[C@H](NCc3ccc(F)cc3)[C@@H](C3OCCCO3)C2)c1` [Example 906, (3R,4S)-4-(1,3-dioxan-2-yl)-N-(4-fluorobenzyl)-1-[(1-methyl-1H-imidazol-4-yl)sulfonyl]pyrrolidin-3-amine], the pKi is no less than 6.00.

For `CCCCCN(C)[C@H]1CN(S(=O)(=O)c2cn(C)cn2)C[C@@H]1C1OCCCO1` [Example 907, (3R,4S)-4-(1,3-dioxan-2-yl)-N-methyl-1-[(1-methyl-1H-imidazol-4-yl)sulfonyl]-N-pentylpyrrolidin-3-amine], the pKi was no less than 6.00.

As to `CCCCCN(CCCCC)[C@H]1CN(S(=O)(=O)c2cn(C)cn2)C[C@@H]1C1OCCCO1` [Example 908, (3R,4S)-4-(1,3-dioxan-2-yl)-1-[(1-methyl-1H-imidazol-4-yl)sulfonyl]-N,N-dipentylpyrrolidin-3-amine], the negative logarithm of the Ki (pKi) was no less than 5.00.

With `CCCCCCN[C@H]1CN(S(=O)(=O)c2cn(C)cn2)C[C@@H]1C1OCCCO1` [Example 910, (3R,4S)-4-(1,3-dioxan-2-yl)-N-hexyl-1-[(1-methyl-1H-imidazol-4-yl)sulfonyl]pyrrolidin-3-amine], the pKi was no less than 7.00.

Take `Cn1cnc(S(=O)(=O)N2C[C@H](Nc3cc(C(F)(F)F)c(Cl)cn3)[C@@H](C3OCCCO3)C2)c1` [Example 911, 5-chloro-N-{(3R,4S)-4-(1,3-dioxan-2-yl)-1-[(1-methyl-1H-imidazol-4-yl)sulfonyl]pyrrolidin-3-yl}-4-(trifluoromethyl)pyridin-2-amine]: the negative-log Ki (pKi) was no less than 8.00.
